# Results reported in patent US20190358974A1, “COMPOSITIONS AND PARTICLES CONTAINING CELLULOSIC FIBERS AND STABILIZED- AND/OR ACTIVATED- UREASE INHIBITORS, AS WELL AS METHODS OF MAKING AND USING THE SAME” (INTERNATIONAL PAPER COMPANY, priority 2016, published 2019).
# Tests used:
# [1] = Aging/degradation of PPDA on dry pulp, PPDA remaining tested by HPLC; type: physicochemical; details: 400 ppm PPDA on pulp stored on shelf as dry pulp, ambient conditions
# Protocol: Bleached softwood pulp sheets were treated (sprayed) respectively with: 1) 400 ppm PPDA on pulp from water solution; 2) 400 ppm PPDA on pulp from PEG-200 solution; 3) 400 ppm PPDA on pulp from solution of 90% PEG-200 and 10% Talc powder. All the samples were dried on a dryer can at 195 F. They were then stored under room temperature (23 C) and 50% humidity chamber. The PPDA content remaining in the dry pulp samples was tested by HPLC.
# They were then put into a controlled chamber with temperature of 55 C and 50% relative humidity. The PPDA content remaining in the dry pulp samples was tested by HPLC.
# Accelerated aging study was done at 35 C and 50% RH with individual sheets thoroughly exposed to the environment. The control PPDA doses were 400 ppm and 1000 ppm based on the weight of the sheet, applied with water solution and dried. And the stabilized PPDA doses were also at 400 ppm and 1000 ppm on sheet, applied with 2% PPDA solution in PEG-200. The results are shown in the table below, and plotted in FIG. 4.
# Aging test was also conducted on-shelf in the bag at room conditions. The result was shown in Table 12, and plotted in FIG. 5 in log scale.
# [2] = cited from earlier work
# [3] = tested on: Proteus mirabilis ATCC #7002; assay: Bacterial ammonia test: NH3 in headspace over fluff/SAP pad inoculated with bacteria in synthetic urine; type: cell-based; details: 400 ppm PPDA inside cellulosic pulp, stored dry at ambient conditions, 20 weeks
# Source text: Test Pad Sample Preparation • 1. Place a non-woven carrier on the 50 mm diameter SCAN pad former screen, attach tube, tare, and place on SCAN test piece former. • 2. Weigh out 0.60 gm fiberized pulp. Fibers should be “fluffy”, well dispersed, and spread evenly in the weighing pan. • 3. Sprinkle 0.40 gm SAP evenly over the fiber. • 4. Start the vacuum and feed the SAP/fiber into the forming cone through the feed tube, ensuring that both materials are simultaneously introduced. • 5. Remove the pad assembly from the former and weigh. Lightly compress the pad and remove the tube. • 6. Lift the non-woven carrier with the pad off of the screen. • 7. Press to ˜3 mm • 8. Seal pad wrapped in non-woven in a plastic ziplok bag until testing.
# This is the Test Inoculum Solution.
# At the end of the designated exposure period, the ammonia in the headspace of the sealed jar is measured using the Drager system. The sampling end of the Drager tube is fitted with a needle which is inserted through the septum. A vent needle is inserted to allow withdrawal of the gaseous sample. The opposite end of the measuring tube is attached to the Drager pump. Ammonia is withdrawn according to the manufacturer specifications for the tube and the measurement recorded.
# The PPDA treated pulp was then shredded by a lab hammermill to convert into fluff fibers. […]
smiles,measurement,setting,value
"NP(N)(=O)Oc1ccccc1 [PPDA, phenylphosphorodiamidate]",stability inside cellulosic pulp,[1],not stable
same,stability of dry PPDA,[2]; dry,stable
same,stability in water,[2]; in water,not stable
same,effectiveness against ammonia generation,[3],lost all its effectiveness against ammonia generation
